From patent US8470806B2, “Perhexiline for treating chronic heart failure” (Heart Metabolics Limited, priority 2004, dated 2013)

Key:
[1] = system: patients with CHF; test: Cardiopulmonary exercise test (treadmill, Weber protocol, respiratory gas analysis); assay type: in vivo, human; details: for VO2max: mean ± SEM
Text: An embodiment of the invention will now be described by way of example only wherein a double-blind, randomised, placebo-controlled study was undertaken in order to investigate the effects of perhexiline on chronic heart failure. 56 patients with CHF were recruited and all provided written informed consent. Entry criteria were as follows: left ventricular ejection fraction (LVEF) <40%, optimally medicated heart failure with New York Heart Association (NYHA) Class II-III symptoms. Cardiopulmonary exercise testing with respiratory gas analysis, completion of the Minnesota Living with Heart Failure Questionnaire (MLHFQ) and 2-D echocardiography were performed at baseline on all patients. Incremental exercise testing with assessment of respiratory gas exchange was performed on a treadmill using the Weber protocol. Breath by breath respiratory gases were measured during exercise using a Pulmolab EX670 system mass spectrometer which was calibrated before every study. Raw data were averaged to 30 second intervals and oxygen consumption during peak exercise was obtained (VO2 max; ml/kg/min). Electrocardiograms and blood pressure were monitored throughout. Exercise was terminated at the subject's request due to fatigue or breathlessness. […] The primary end-point for this study was pre-defined as VO2 max with the following secondary endpoints: MLHFQ score, LVEF, E:EA ratio, resting, low dose and high dose mean PSV during stress echocardiography and PCr t½. Therapy randomization of the ischemic and non-ischemic groups occurred separately but with similar protocols in order to allow for pre-hoc analysis of the primary endpoint in each group. […] Data were analyzed with SPSS 11.5 for Windows® and expressed as mean±standard error of mean. ANCOVA using baseline values as covariates was performed to test for significance of differences seen in the perhexiline vs. placebo groups following treatment.

[2] = system: patients with CHF; test: Safety and tolerability in the 8-week study (side effects, corrected QT, liver function, neuropathy)
Experimental: Following baseline studies, patients were randomized in a double-blind fashion to receive either perhexiline (n=28) or placebo (n=28) 100 mg twice daily. Blood was obtained at 1, 4, and 8 weeks after initiation of the drug for measurements of serum perhexiline levels with subsequent dose titration in order to prevent toxicity. Dose adjustments were advised as per a standard protocol by an unblinded physician. Identical dosage adjustments were also made for randomly allocated placebo-treated patients by the unblinded observer in order to ensure blinding of the investigators was maintained. After 8 weeks of treatment, patients were re-evaluated as above.

[3] = system: patients with CHF (ischemic group); test: Tissue Doppler / dobutamine stress echocardiography, ischemic group; assay type: in vivo, human; parameters: Mean PSV (15 segments): unit not given beside the values
Experimental: Tissue Doppler assessment of the left ventricle was performed at rest and analysed off-line using Echopac software in order to determine regional myocardial PSV from 15 left ventricular segments described in detail elsewhere (20). These segments were selected to include all areas supplied by the three major coronary arteries and for the greatest reproducibility for acquisition of PSV (21). (See FIG. 4) Following resting echocardiography dobutamine infusion was commenced via a syringe driver and incremented at 3 minute intervals from 5 mcg/kg/min to 10, 20, 30 and 40 mcg/kg/min. Digital loops of 15 views outlined above were stored at 90 seconds of each stage. Up to 1 mg of atropine was given if the hemodynamic response was submaximal. Electrocardiograms and blood pressure were monitored at each stage. End-points for termination of the test were attainment of ≧85% of the target heart rate, evidence of ischemia, or severe side effects from dobutamine. Data from all stages were analysed off-line as with the resting images. PSV data are expressed as velocity at rest, low dose dobutamine infusion ([…]) and peak dose dobutamine infusion (the last infusion stage before infusion terminated, which may include the addition of atropine).

[4] = system: patients with CHF; test: Resting echocardiography (LVEF, volumes, long-axis PSV, E:EA ratio); assay type: in vivo, human; details: for Long axis function: PSV of lateral mitral valve annulus
Experimental: Echocardiography was performed with patients in the left lateral decubitus position using a Vingmed System V echocardiographic machine and a 2.5 MHz transducer. Images were stored digitally. Resting scans were acquired using standard echocardiographic windows for LVEF, transmitral valve Doppler, and resting tissue Doppler. […] Left ventricular volumes for calculation of LVEF were obtained using biplane echocardiography and the modified Simpson's formula. Volumes were averaged over 3 beats. In addition, on-line tissue Doppler peak systolic velocity (PSV) of the lateral mitral valve annulus was obtained as a reflection of left ventricular long-axis function. In theory, improving metabolic efficiency would also lead to an improvement in diastolic function of the left ventricle as energy is also required for cardiac relaxation. The ratio of peak E wave from transmitral valve Doppler vs. the E wave from tissue Doppler of the lateral mitral valve annulus (E:EA ratio) is a sensitive indicator of left ventricular end diastolic pressure (19). […] The primary end-point for this study was pre-defined as VO2 max with the following secondary endpoints: MLHFQ score, LVEF, E:EA ratio, resting, low dose and high dose mean PSV during stress echocardiography and PCr t½. Therapy randomization of the ischemic and non-ischemic groups occurred separately but with similar protocols in order to allow for pre-hoc analysis of the primary endpoint in each group. […] Data were analyzed with SPSS 11.5 for Windows® and expressed as mean±standard error of mean. ANCOVA using baseline values as covariates was performed to test for significance of differences seen in the perhexiline vs. placebo groups following treatment.

[5] = system: patients with CHF; test: NYHA class before and after treatment; assay type: in vivo, human
Experimental: 56 patients with CHF were recruited and all provided written informed consent. Entry criteria were as follows: left ventricular ejection fraction (LVEF) <40%, optimally medicated heart failure with New York Heart Association (NYHA) Class II-III symptoms. Cardiopulmonary exercise testing with respiratory gas analysis, completion of the Minnesota Living with Heart Failure Questionnaire (MLHFQ) and 2-D echocardiography were performed at baseline on all patients.

[6] = system: patients with CHF; test: Minnesota Living with Heart Failure Questionnaire (MLHFQ); assay type: in vivo, human; details: for Minnesota living with heart failure questionnaire score: higher score = poorer quality of life
Experimental: A standard 21-question MLHFQ was employed to determine if perhexiline affected patient quality of life. This is a well validated measure of symptomatology in heart failure (17) and includes questions to assess the ability to perform activities of daily living as well as questions gauging the severity of symptoms due to heart failure. Each question was scored out of 5. The sum of the scores were calculated where a higher score indicated a poorer quality of life. All patients completed the questionnaires alone and without assistance. […] The primary end-point for this study was pre-defined as VO2 max with the following secondary endpoints: MLHFQ score, LVEF, E:EA ratio, resting, low dose and high dose mean PSV during stress echocardiography and PCr t½. Therapy randomization of the ischemic and non-ischemic groups occurred separately but with similar protocols in order to allow for pre-hoc analysis of the primary endpoint in each group. […] Data were analyzed with SPSS 11.5 for Windows® and expressed as mean±standard error of mean. ANCOVA using baseline values as covariates was performed to test for significance of differences seen in the perhexiline vs. placebo groups following treatment.

[7] = Serum perhexiline levels; assay type: in vivo; details: human
[8] = Post, after 8 weeks of treatment
[9] = all patients of the perhexiline group, 8 weeks

C1CCC(C(CC2CCCCN2)C2CCCCC2)CC1 (centres unmarked) [Perhexiline, 2-(2,2-dicyclohexylethyl)piperidine]
Exercise Time [1, 8]: 12.3 ± 1.1 min
VO2max [1, 8]: 18.8 ± 1.1 mL/min/kg
Exercise Time ([1]; Pre (baseline)): 10.5 ± 1.2 min
VO2max ([1]; Pre (baseline), perhexiline group): 16.1 ± 0.6 mL/min/kg
increase in VO2 max following treatment [1, 9]: 2.7 ± 0.8 mL/min/kg
increase in VO2 max following treatment (relative) [1, 9]: 16.7%
increase in VO2 max ([1]; ischemic group, 8 weeks): 2.9 ± 1.2 mL/min/kg
increase in VO2 max ([1]; non-ischemic group, 8 weeks): 2.5 ± 0.4 mL/min/kg
deaths during the study period ([2]; 8-week course): no deaths in either group
Corrected QT Interval ([2]; Post, after 8 weeks): 413 ± 13 ms
Corrected QT Interval ([2]; Pre (baseline)): 413 ± 11 ms
Side effects ([2]; perhexiline group, 8-week course): restricted to transient nausea and dizziness during the first week of treatment
abnormal liver function tests or neuropathy ([2]; with close serum level monitoring and titration): None of the patients in this study developed abnormal liver function tests or neuropathy
Mean PSV (15 segments) ([3]; Low Dose dobutamine, Post): 5.0 ± 0.5
Mean PSV (15 segments) ([3]; Low Dose dobutamine, Pre): 4.7 ± 0.3
Mean PSV (15 segments) ([3]; Peak Dose dobutamine, Post): 8.2 ± 0.8
Mean PSV (15 segments) ([3]; Peak Dose dobutamine, Pre): 6.6 ± 0.5
Mean PSV (15 segments) ([3]; Rest, Post): 3.8 ± 0.2
Mean PSV (15 segments) ([3]; Rest, Pre): 3.3 ± 0.2
increase in peak dose PSV ([3]; ischemic cohort, peak dose dobutamine, 8 weeks): 24%
increase in resting mean PSV following treatment ([3]; ischemic cohort, rest, 8 weeks): 15%
increase of mean LVEF following treatment ([4]; 8 weeks): 9.9 ± 2.0 absolute percentage points
relative increase of mean LVEF ([4]; 8 weeks): 42%
E:EA Ratio ([4]; Post, after 8 weeks): 6.5 ± 0.9
Left ventricular ejection fraction ([4]; Post, after 8 weeks): 34 ± 2 %
Left ventricular end-diastolic volume ([4]; Post, after 8 weeks): 212 ± 9 mL
Left ventricular end-systolic volume ([4]; Post, after 8 weeks): 140 ± 8 mL
Long axis function ([4]; Post, after 8 weeks): 7.2 ± 0.6^|| cm/s
E:EA Ratio ([4]; Pre (baseline)): 8.6 ± 0.6
Left ventricular ejection fraction ([4]; Pre (baseline)): 24 ± 1%
Left ventricular end-diastolic volume ([4]; Pre (baseline)): 232 ± 11 mL
Left ventricular end-systolic volume ([4]; Pre (baseline)): 176 ± 8 mL
Long axis function ([4]; Pre (baseline)): 5.8 ± 0.4 cm/s
NYHA Class ([5]; Post, after 8 weeks): 1.9 ± 0.2^+
NYHA Class ([5]; Pre (baseline)): 2.4 ± 0.1
reduction of MLHFQ scores following treatment ([6]; 8 weeks): 24.4%
Minnesota living with heart failure questionnaire score ([6]; Post, after 8 weeks): 34 ± 5
Minnesota living with heart failure questionnaire score ([6]; Pre (baseline)): 45 ± 5
concentration at 1 week ([7]; Week 1, 100 mg twice daily with dose titration): 570 ± 190 ng/mL
concentration at 4 weeks ([7]; Week 4, 100 mg twice daily with dose titration): 670 ± 200 ng/mL
concentration at 8 weeks ([7]; Week 8, 100 mg twice daily with dose titration): 430 ± 120 ng/mL
